Assay results from patent US9790235B2, “MK2 inhibitors and uses thereof” (Celgene CAR LLC, priority 2014, dated 2017).
Where two headings read alike, the source gives them in different places.

Key:
MK2 [1] = target: T1, MK2 (Homo sapiens (Human), UniProt P49137)
MK2 [2] = target: T1, MK2; experiment: MK2 cellular assay, total and phospho-Hsp27 (Serine 78) by MSD ELISA (Thp1); format: cell-based; conditions: Thp-1 cells, 1 hour compound, 50 ng/mL LPS 45 minutes, p-HSP27 (Ser78)/total HSP27; read-out: pHSP27 signaling EC50
Procedure: MK2 Cellular Assay—Detection of Total and Phospho-Hsp27 (Serine 78) by MSD ELISA (Thp1)
Compounds of the invention were assayed in Thp-1 human acute monocytic leukemia cells to measure inhibition of MK2 activity. Thp-1 cells were grown in culture medium containing RPMI/10% FBS (fetal bovine serum)/0.05 mM 2-mercaptoethanol. 72 hours prior to the assay, 8×10^4 cells per well were plated in a 96 well flat bottom plate along with 10 ng/mL phorbol 12-myristate 13-acetate (PMA). Cells were cultured in an incubator at 37° C. until needed for the assay. Cell plate media was replaced with culture media just prior to assay while compound dilutions were being made.
Stock solutions of test compound, 1 mM in DMSO, were prepared. 0.9 μl of test compound was added to 300 μl cell media for a starting concentration of 3000 nM. […] Cell plate media was discarded, followed by addition of 100 μl of the compound containing media. The resulting preparation was incubated at 37° C. for 1 hour.
Test compound-containing cell assay media was removed and the cells were washed once with cell assay media. Cell assay media containing 50 ng/mL LPS (lipopolysaccharide) was added to the each well and incubated for 45 minutes. Following LPS incubation, the cells were washed once with PBS (phosphate-buffered saline) and lysed with 60 μl Cell Extraction Buffer (Invitrogen #FNN0011) plus protease and phosphatase inhibitors. The plate was then stored at −80° C. until further analysis.
The MULTI-SPOT Phospho(Ser78)/Total HSP27 ELISA Assay kit was purchased from Meso Scale […] (MSD; catalog #K15128D). […] The pre-coated MSD plate was blocked with 150 μL/well of 3% BSA in MSD wash buffer. The preparation was placed on a shaker at room temperature for an hour. While the ELISA plate was blocked, the cell assay plate stored at −80° C. was placed on a shaker at 4° C. for 1 hour to thaw.
The blocked MSD plate was washed on a plate washer, tapping out the last bit of wash solution, followed by addition of 30 μl of the lysate from the cell assay plate. The preparation was covered and incubated for 1 hour at room temperature. The lysate was removed, the plate was washed 3 times on a plate washer and the last bit of wash buffer was tapped out and replaced with 25 μl/well detection antibody (anti-total HSP27 conjugated with an electrochemiluminescent compound, MSD SULFO-TAG label, supplied in kit) made in 1% BSA/MSD wash buffer. The plate was incubated for 1 hour at room temperature on a shaker, followed by 3 washes. The last bit of wash buffer was tapped out. 150 μl/well 1×MSD read buffer was added (4× read buffer supplied with kit) and the plate was analyzed on the MSD SECTOR® Imager for analysis. The SECTOR® Imager measures intensity of emitted light to provide a quantitative measure of phosphorylated HSP27 (Ser78) and total HSP27 present in the sample. The relative percent phosphoprotein in a sample is calculated by dividing the Phospho-HSP27 signal intensity over the total HSP27 signal intensity measured in each well.

[3] = target: p38α activated, mitogen-activated protein kinase-activated protein kinase 2 (MAPKAP-K2 or MK2) enzyme (Homo sapiens (Human), UniProt P49137); experiment: MK2 Omnia continuous-read kinase assay for compound potency; format: biochemical; conditions: [MK-2]=0.4 nM, [ATP]=10 μM, [ST3-Sox]=10 μM; read-out: MK2 IC50
Sequence of p38α activated, mitogen-activated protein kinase-activated protein kinase 2 (MAPKAP-K2 or MK2) enzyme (P49137 whole entry): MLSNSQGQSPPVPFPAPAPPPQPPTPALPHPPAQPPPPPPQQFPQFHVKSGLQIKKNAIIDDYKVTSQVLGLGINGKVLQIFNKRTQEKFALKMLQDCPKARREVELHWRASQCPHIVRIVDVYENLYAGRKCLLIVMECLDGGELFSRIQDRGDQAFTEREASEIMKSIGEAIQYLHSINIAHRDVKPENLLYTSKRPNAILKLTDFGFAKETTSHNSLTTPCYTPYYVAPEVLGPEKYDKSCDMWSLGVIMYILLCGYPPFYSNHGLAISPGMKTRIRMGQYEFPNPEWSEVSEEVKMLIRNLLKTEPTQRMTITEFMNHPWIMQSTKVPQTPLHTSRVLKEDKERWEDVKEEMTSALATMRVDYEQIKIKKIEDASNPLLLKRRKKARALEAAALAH
From the text: Mitogen-Activated Protein Kinase-Activated Protein Kinase 2 Omnia® Assay for Compound Potency Assessment:
The protocol below describes a continuous-read kinase assay optimized to measure potency of compounds against p38α activated, mitogen-activated protein kinase-activated protein kinase 2 (MAPKAP-K2 or MK2) enzyme. Further details of this assay are described by Life Technologies, Carlsbad, Calif. on their website at the following URL: http://tools.lifetechnologies.com/content/sfs/manuals/omnia_kinase_assay_man.pdf.
[Reagent] used: • [MK-2]=0.4 nM, • [ATP]=10 μM and • [ST3-Sox]=10 μM (ATP^appKM=10 μM)
Kinase reactions were started with the addition of 45 μL of the ATP-peptide substrate S/T3-Sox mix and monitored every 71 seconds for 120 minutes at λex360/λem485 in a Synergy H4 plate reader from BioTek (Winooski, Vt.) at room temperature.
Background signals from the no enzyme control wells were subtracted from all progress curves. The initial linear portions of the net progress curves were fit according to a linear equation to yield the slope and percentage of inhibition (% inhibition) at each compound concentration. The net progress curves obtained during the first two hours of reactions were also fit according to an ascending single-exponential equation (Eq. 1) to yield kobs values at each compound concentration. Plots of % Inhibition versus inhibitor concentrations were fit according to a dose-response equation (Eq. 2) to generate IC50 and Hill slope values while plots of kobs versus inhibitor concentration were fit according to Equation 3 (Eq. 3) to generate apparent kinact/KI values using the GraphPad PRISM software (Version 6.00; GraphPad San Diego, Calif.).
[formula] where F is the fluorescence intensity from the plate reader, V0 is a constant reflecting the relationship between the instrument readout and product concentration, t is time, e is Euler's number, and kobs is the observed inactivation rate constant.
[formula] where % Inhibition is percentage of inhibition, IC50 is half maximal inhibitory concentration, [I] is the inhibitor concentration, and n is the Hill slope.

[4] = percentage of modified protein after 60 minutes at room temperature, 10-fold excess of compound, MALDI (I-1 to I-50), magnetic bead MALDI (I-51 to I-129)
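Wherever Mass Modification is given: covalent binding read from centroid mass shift of compound-treated versus untreated intact MK2, shift divided by compound molecular weight, giving fraction of total protein bound.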

T1 sequence (P49137 whole entry): as above

C[C@@H]1CNc2c(sc3ccc4nc(Nc5nc(Cl)ncc5C(N)=O)ccc4c23)C(=O)N1 [I-9, (R)-2-chloro-4-((10-methyl-8-oxo-9,10,11,12-tetrahydro-8H-[1,4]diazepino[5′,6′:4,5]thieno[3,2-f]quinolin-3-yl)amino)pyrimidine-5-carboxamide]
Mass Modification (MK2 [1]; [4]): E (mass modification of ≧70%) | EC50 (MK2 [2]): < 100 nM | IC50 [3]: < 100 nM

C[C@@H]1CNc2c(sc3ccc4nc(Nc5nc(Cl)nc(N6CCN(C)CC6)n5)ccc4c23)C(=O)N1 [I-10, (R)-3-((4-chloro-6-(4-methylpiperazin-1-yl)-1,3,5-triazin-2-yl)amino)-10-methyl-9,10,11,12-tetrahydro-8H-[1,4]diazepino[5′,6′:4,5]thieno[3,2-f]quinolin-8-one]
Mass Modification (MK2 [1]; [4]): G (mass modification ≦30%) | EC50 (MK2 [2]): 101 to 500 nM | IC50 [3]: < 100 nM

C[C@@H]1CNc2c(sc3ccc4nc(Nc5nccc(Cl)n5)ccc4c23)C(=O)N1 [I-13, (R)-3-((4-chloropyrimidin-2-yl)amino)-10-methyl-9,10,11,12-tetrahydro-8H-[1,4]diazepino[5′,6′:4,5]thieno[3,2-f]quinolin-8-one]
Mass Modification (MK2 [1]): G (key: E: mass modification of ≧70%; F: mass modification of 31-69%; G: mass modification ≦30%) | EC50 (MK2 [2]): > 1000 nM

C[C@@H]1CNc2c(sc3ccc4nc(Nc5ccnc(S(C)(=O)=O)n5)ccc4c23)C(=O)N1 [I-14, (R)-10-methyl-3-((2-(methylsulfonyl)pyrimidin-4-yl)amino)-9,10,11,12-tetrahydro-8H-[1,4]diazepino[5′,6′:4,5]thieno[3,2-f]quinolin-8-one]
Mass Modification (MK2 [1]; [4]): G (mass modification ≦30%) | EC50 (MK2 [2]): > 1000 nM | IC50 [3]: < 100 nM

C[C@@H]1CNc2c(sc3ccc4nc(Nc5cc(Cl)ncc5C(N)=O)ccc4c23)C(=O)N1 [I-15, (R)-6-chloro-4-((10-methyl-8-oxo-9,10,11,12-tetrahydro-8H-[1,4]diazepino[5′,6′:4,5]thieno[3,2-f]quinolin-3-yl)amino)nicotinamide]
Mass Modification (MK2 [1]; [4]): G (mass modification ≦30%) | EC50 (MK2 [2]): > 1000 nM | IC50 [3]: < 100 nM

C[C@@H]1CNc2c(sc3ccc4nc(Nc5nc(Cl)ncc5C#N)ccc4c23)C(=O)N1 [I-16, (R)-2-chloro-4-((10-methyl-8-oxo-9,10,11,12-tetrahydro-8H-[1,4]diazepino[5′,6′:4,5]thieno[3,2-f]quinolin-3-yl)amino)pyrimidine-5-carbonitrile]
Mass Modification (MK2 [1]; [4]): E (mass modification of ≧70%) | EC50 (MK2 [2]): < 100 nM | IC50 [3]: < 100 nM

C[C@@H]1CNc2c(sc3ccc4nc(Nc5nc(Cl)ncc5C(=O)NC5COC5)ccc4c23)C(=O)N1 [I-20, (R)-2-chloro-4-((10-methyl-8-oxo-9,10,11,12-tetrahydro-8H-[1,4]diazepino[5′,6′:4,5]thieno[3,2-f]quinolin-3-yl)amino)-N-(oxetan-3-yl)pyrimidine-5-carboxamide]
Mass Modification (MK2 [1]; [4]): G (mass modification ≦30%) | EC50 (MK2 [2]): > 1000 nM

C[C@@H]1CNc2c(sc3ccc4nc(Nc5nc(Cl)ncc5C(=O)NC5CC5)ccc4c23)C(=O)N1 [I-21, (R)-2-chloro-N-cyclopropyl-4-((10-methyl-8-oxo-9,10,11,12-tetrahydro-8H-[1,4]diazepino[5′,6′:4,5]thieno[3,2-f]quinolin-3-yl)amino)pyrimidine-5-carboxamide]
Mass Modification (MK2 [1]; [4]): G (mass modification ≦30%) | EC50 (MK2 [2]): > 1000 nM

CN(C)C[C@@H]1CNc2c(sc3ccc4nc(Nc5cc(F)ncn5)ccc4c23)C(=O)N1 [I-31, (S)-10-((dimethylamino)methyl)-3-((6-fluoropyrimidin-4-yl)amino)-9,10,11,12-tetrahydro-8H-[1,4]diazepino[5′,6′:4,5]thieno[3,2-f]quinolin-8-one]
Mass Modification (MK2 [1]; [4]): F (mass modification of 31-69%) | EC50 (MK2 [2]): > 1000 nM

C[C@@H]1CNc2c(sc3ccc4nc(Nc5cc(F)nc(OCCN6CCN(C)CC6)n5)ccc4c23)C(=O)N1 [I-48, (R)-3-((6-fluoro-2-(2-(4-methylpiperazin-1-yl)ethoxy)pyrimidin-4-yl)amino)-10-methyl-9,10,11,12-tetrahydro-8H-[1,4]diazepino[5′,6′:4,5]thieno[3,2-f]quinolin-8-one]
EC50 (MK2 [2]): > 1000 nM | IC50 [3]: < 100 nM

C[C@@H]1CNc2c(sc3ccc4nc(Oc5nc(Cl)ncc5CN5CCC[C@H]5C)ccc4c23)C(=O)N1 [I-99, (R)-3-((2-chloro-5-(((R)-2-methylpyrrolidin-1-yl)methyl)pyrimidin-4-yl)oxy)-10-methyl-9,10,11,12-tetrahydro-8H-[1,4]diazepino[5′,6′:4,5]thieno[3,2-f]quinolin-8-one]
EC50 (MK2 [2]): < 100 nM | IC50 [3]: < 100 nM

C[C@@H]1CNc2c(sc3ccc4nc(Oc5nc(Cl)ncc5CN5CCC[C@@H]5C)ccc4c23)C(=O)N1 [I-101]
EC50 (MK2 [2]): < 100 nM | IC50 [3]: < 100 nM

C[C@@H]1CNc2c(sc3ccc4nc(Oc5ncncc5CN(C)C(C)(C)C)ccc4c23)C(=O)N1 [I-104, (R)-3-((5-((tert-butyl(methyl)amino)methyl)pyrimidin-4-yl)oxy)-10-methyl-9,10,11,12-tetrahydro-8H-[1,4]diazepino[5′,6′:4,5]thieno[3,2-f]quinolin-8-one]
EC50 (MK2 [2]): > 1000 nM | IC50 [3]: 501 to 999 nM

CO[C@H]1CCCN(Cc2cnc(Cl)nc2Oc2ccc3c(ccc4sc5c(c43)NC[C@@H](C)NC5=O)n2)C1 [I-106, (R)-3-((2-chloro-5-(((S)-3-methoxypiperidin-1-yl)methyl)pyrimidin-4-yl)oxy)-10-methyl-9,10,11,12-tetrahydro-8H-[1,4]diazepino[5′,6′:4,5]thieno[3,2-f]quinolin-8-one]
EC50 (MK2 [2]): < 100 nM | IC50 [3]: 101 to 500 nM

C[C@@H]1CNc2c(sc3ccc4nc(Oc5cc(CNC(C)(C)C)nc(Cl)n5)ccc4c23)C(=O)N1 [I-117, (R)-3-((6-((tert-butylamino)methyl)-2-chloropyrimidin-4-yl)oxy)-10-methyl-9,10,11,12-tetrahydro-8H-[1,4]diazepino[5′,6′:4,5]thieno[3,2-f]quinolin-8-one]
EC50 (MK2 [2]): < 100 nM

C[C@@H]1CNc2c(sc3ccc4nc(Oc5nc(Cl)ncc5-c5cccnc5)ccc4c23)C(=O)N1 [I-123, (R)-3-((2-chloro-5-(pyridin-3-yl)pyrimidin-4-yl)oxy)-10-methyl-9,10,11,12-tetrahydro-8H-[1,4]diazepino[5′,6′:4,5]thieno[3,2-f]quinolin-8-one]
EC50 (MK2 [2]): < 100 nM | IC50 [3]: < 100 nM
